The text below walks through data of ChEMBL document CHEMBL3259577, “Antagonists of the kappa opioid receptor” (Bioorg Med Chem Lett, 2014).

Peptide text beside a SMILES is read from it.

Data set [1] addresses T1, Mu-type opioid receptor (Homo sapiens, UniProt P35372). Kind of data set: Displacement of [3H]diprenorphine from mu opioid receptor (unknown origin) expressed in CHO cells membranes. Type of data set: cell membranes. (Loss of bound radioactivity is the signal in a displacement assay; it reports binding, not function.)
Data set [2] has as its target T2, Kappa-type opioid receptor (Homo sapiens, UniProt P41145). Kind of data set: Displacement of [3H]diprenorphine from kappa opioid receptor (unknown origin) expressed in CHO cells membranes. Type of data set: cell membranes.
The target of data set [3] is T3, Delta-type opioid receptor (Homo sapiens, UniProt P41143). Put plainly: Displacement of [3H]diprenorphine from delta opioid receptor (unknown origin) expressed in CHO cells membranes. Type of data set: cell membranes.
The target in data set [4] is Kappa-type opioid receptor (Cavia porcellus, UniProt P41144). Kind of data set: Antagonist activity at kappa opioid receptor in guinea pig ileum assessed as inhibition of U50488-stimulated [35S]-GTP[gammaS] binding. Type of data set: functional, tissue-based. The note with it: read-out: pA2 (converted).
Data set [5] concerns the target Mu-type opioid receptor (Cavia porcellus, UniProt P97266). Put plainly: Antagonist activity at mu opioid receptor in guinea pig ileum assessed as inhibition of DAMGO-stimulated [35S]-GTP[gammaS] binding. The note with it: read-out: pA2 (converted). The data set is classed as functional, tissue-based. For orientation: GTPγS resists hydrolysis and so accumulates on activated G proteins.

Data set [6] has as its target T2, Kappa-type opioid receptor. Put plainly: Antagonist activity at human cloned kappa opioid receptor expressed in CHO cells assessed as inhibition of Dynorphin A-stimulated [35S]-GTP[gammaS] binding. The data set is classed as functional, cell-based.
In data set [7] the target is T1, Mu-type opioid receptor. Kind of data set: Antagonist activity at human cloned mu opioid receptor expressed in CHO cells assessed as inhibition of DAMGO-stimulated [35S]-GTP[gammaS] binding. Type of data set: cell-based.
The species named for the next data set is Mus musculus. Kind of data set: Antinociceptive activity in mouse assessed as reversal of U50488-induced withdrawl latencies. Type of data set: functional.
Data set [8] deals with Mu-type opioid receptor (Cavia porcellus) (UniProt P97266). Kind of data set: Antagonist activity at mu opioid receptor in guinea pig caudate assessed as inhibition of DAMGO-stimulated [35S]-GTP[gammaS] binding. The data set is classed as functional.
Data set [9] addresses Kappa-type opioid receptor (Cavia porcellus) (UniProt P41144).
For a further data set, the species on record is Cavia porcellus. Put plainly: Antagonist activity at delta opioid receptor in guinea pig caudate assessed as inhibition of SNC-80-stimulated [35S]-GTP[gammaS] binding.
The test system of data set [10] is CHO. Kind of data set: Selectivity ratio of Ki for delta opioid receptor (unknown origin) expressed in CHO cell membranes to Ki for kappa opioid receptor (unknown origin) expressed in CHO cell membranes. Type of data set: cell-based. The note with it: Homo sapiens.
Data set [11] concerns CHO. Put plainly: Selectivity ratio of Ki for mu opioid receptor (unknown origin) expressed in CHO cell membranes to Ki for kappa opioid receptor (unknown origin) expressed in CHO cell membranes. Conditions: Homo sapiens. Type of data set: cell-based.
Data set [12] deals with Sodium-dependent noradrenaline transporter (Homo sapiens, UniProt P23975). Kind of data set: Binding affinity to NET (unknown origin).
The target of data set [13] is T3, Delta-type opioid receptor. Put plainly: Inhibition of delta opioid receptor (unknown origin) using SNC-80 by high content imaging beta-arrestin translocation assay.
In data set [14] the target is T1, Mu-type opioid receptor. Kind of data set: Inhibition of mu opioid receptor (unknown origin) using DAMGO by high content imaging beta-arrestin translocation assay.
Data set [15] can be described thus: Drug metabolism in mouse liver microsomes assessed as compound remaining after 1 hr. The data set is classed as ADME. The note with it: read-out: Drug metabolism.
The target in a further data set is Histamine H1 receptor (Homo sapiens, UniProt P35367). Put plainly: Binding affinity to histamine H1 receptor (unknown origin).
In the next data set the target is D(3) dopamine receptor (Homo sapiens, UniProt P35462). Kind of data set: Binding affinity to dopamine D3 receptor (unknown origin).
The target of data set [16] is Kappa-type opioid receptor (Rattus norvegicus) (UniProt P34975). Put plainly: Displacement of [3H]CI977 from rat forebrain OPRK.
Data set [17] addresses Mu-type opioid receptor (Rattus norvegicus) (UniProt P33535). Kind of data set: Displacement of [3H]DAMGO from rat forebrain OPRM.
The target of data set [18] is Kappa-type opioid receptor (Rattus norvegicus) (UniProt P34975). Put plainly: Displacement of [3H]CI977 from rat forebrain OPRK assessed as maximal binding after 30 mins.
The test system of a further data set is Rattus norvegicus. Put plainly: Reduction in spiradoline-induced sc dosed rat plasma prolactin levels. The data set is classed as functional. Conditions: read-out: ID50 (the source's name).
For data set [19], the target named is T2, Kappa-type opioid receptor. Put plainly: Inhibition of kappa opioid receptor (unknown origin) using dynorphin A by DiscoveryRx b-arrestin PathHunter assay.
Data set [20] deals with T1, Mu-type opioid receptor. Kind of data set: Agonist activity at human cloned mu opioid receptor expressed in CHO cells assessed as stimulation of [35S]-GTP[gammaS] binding. The data set is classed as cell-based.

T1 sequence (P35372 whole entry): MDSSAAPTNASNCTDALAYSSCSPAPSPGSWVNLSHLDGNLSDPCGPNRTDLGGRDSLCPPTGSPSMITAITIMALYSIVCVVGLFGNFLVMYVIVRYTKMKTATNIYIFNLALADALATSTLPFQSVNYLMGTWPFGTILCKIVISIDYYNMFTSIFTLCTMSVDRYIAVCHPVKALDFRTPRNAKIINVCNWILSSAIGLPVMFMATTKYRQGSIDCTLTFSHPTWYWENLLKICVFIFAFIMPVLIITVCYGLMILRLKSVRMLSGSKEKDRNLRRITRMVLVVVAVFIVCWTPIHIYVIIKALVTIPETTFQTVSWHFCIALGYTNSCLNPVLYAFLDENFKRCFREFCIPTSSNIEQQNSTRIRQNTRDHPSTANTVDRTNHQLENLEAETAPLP
T3 sequence (P41143 whole entry): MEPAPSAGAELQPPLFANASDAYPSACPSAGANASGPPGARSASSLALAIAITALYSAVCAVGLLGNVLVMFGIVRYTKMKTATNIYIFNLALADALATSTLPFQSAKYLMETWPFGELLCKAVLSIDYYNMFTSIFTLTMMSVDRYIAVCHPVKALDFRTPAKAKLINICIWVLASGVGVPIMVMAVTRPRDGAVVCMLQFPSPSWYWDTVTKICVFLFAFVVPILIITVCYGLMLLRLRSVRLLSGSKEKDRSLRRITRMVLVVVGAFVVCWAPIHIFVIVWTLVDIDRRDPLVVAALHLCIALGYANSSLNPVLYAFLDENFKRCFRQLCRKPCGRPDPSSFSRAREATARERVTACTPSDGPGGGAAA
T2 sequence (P41145 whole entry): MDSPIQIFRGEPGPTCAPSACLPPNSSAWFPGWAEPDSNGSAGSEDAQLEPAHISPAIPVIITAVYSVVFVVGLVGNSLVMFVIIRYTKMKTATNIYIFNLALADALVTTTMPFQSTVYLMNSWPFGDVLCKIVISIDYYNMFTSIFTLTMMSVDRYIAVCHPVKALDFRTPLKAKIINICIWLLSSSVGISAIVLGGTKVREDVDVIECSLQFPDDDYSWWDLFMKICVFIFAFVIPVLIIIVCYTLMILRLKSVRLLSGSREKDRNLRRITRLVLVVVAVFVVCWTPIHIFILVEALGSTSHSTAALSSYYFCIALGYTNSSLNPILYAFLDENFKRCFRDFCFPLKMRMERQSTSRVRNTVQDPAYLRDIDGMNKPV
Sequence of Kappa-type opioid receptor (Rattus norvegicus) (P34975 whole entry): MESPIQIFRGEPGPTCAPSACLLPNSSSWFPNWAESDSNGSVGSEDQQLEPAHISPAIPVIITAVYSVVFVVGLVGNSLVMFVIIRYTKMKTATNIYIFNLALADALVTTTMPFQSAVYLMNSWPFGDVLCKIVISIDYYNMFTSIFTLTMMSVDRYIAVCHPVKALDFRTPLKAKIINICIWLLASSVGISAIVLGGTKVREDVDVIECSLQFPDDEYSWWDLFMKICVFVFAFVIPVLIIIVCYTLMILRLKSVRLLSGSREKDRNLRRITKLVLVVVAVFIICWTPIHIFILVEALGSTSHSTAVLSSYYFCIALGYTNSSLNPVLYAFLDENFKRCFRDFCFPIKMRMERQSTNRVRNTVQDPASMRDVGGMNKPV
Sequence of Kappa-type opioid receptor (Cavia porcellus) (P41144 whole entry): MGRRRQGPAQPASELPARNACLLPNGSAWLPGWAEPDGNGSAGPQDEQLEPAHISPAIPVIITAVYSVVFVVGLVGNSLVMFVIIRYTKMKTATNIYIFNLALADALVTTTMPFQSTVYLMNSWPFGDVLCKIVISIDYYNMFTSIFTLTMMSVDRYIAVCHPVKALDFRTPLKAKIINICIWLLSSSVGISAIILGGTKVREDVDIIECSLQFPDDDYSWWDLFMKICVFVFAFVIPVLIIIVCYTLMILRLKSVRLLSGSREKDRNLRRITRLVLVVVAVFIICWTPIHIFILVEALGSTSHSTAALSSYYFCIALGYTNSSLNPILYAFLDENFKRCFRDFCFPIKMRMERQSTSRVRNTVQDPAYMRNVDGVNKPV
Sequence of Kappa-type opioid receptor (Cavia porcellus, UniProt P41144) (P41144 whole entry): as above
Sequence of Mu-type opioid receptor (Cavia porcellus) (P97266 whole entry): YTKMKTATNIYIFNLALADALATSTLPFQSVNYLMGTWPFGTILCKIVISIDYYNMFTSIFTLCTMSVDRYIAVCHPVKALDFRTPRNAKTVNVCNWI
Sequence of Mu-type opioid receptor (Cavia porcellus, UniProt P97266) (P97266 whole entry): as above
Sequence of D(3) dopamine receptor (P35462 whole entry): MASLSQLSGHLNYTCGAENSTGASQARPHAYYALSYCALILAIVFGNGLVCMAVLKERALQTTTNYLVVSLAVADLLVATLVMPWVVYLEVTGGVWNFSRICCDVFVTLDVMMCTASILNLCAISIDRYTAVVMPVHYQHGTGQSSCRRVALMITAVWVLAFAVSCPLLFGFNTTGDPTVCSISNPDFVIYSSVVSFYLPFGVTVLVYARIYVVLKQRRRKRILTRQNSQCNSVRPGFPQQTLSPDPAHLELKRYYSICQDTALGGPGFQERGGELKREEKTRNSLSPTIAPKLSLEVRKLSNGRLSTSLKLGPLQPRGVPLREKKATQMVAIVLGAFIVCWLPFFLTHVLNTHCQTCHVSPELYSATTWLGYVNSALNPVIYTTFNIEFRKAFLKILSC
Sequence of Mu-type opioid receptor (Rattus norvegicus) (P33535 whole entry): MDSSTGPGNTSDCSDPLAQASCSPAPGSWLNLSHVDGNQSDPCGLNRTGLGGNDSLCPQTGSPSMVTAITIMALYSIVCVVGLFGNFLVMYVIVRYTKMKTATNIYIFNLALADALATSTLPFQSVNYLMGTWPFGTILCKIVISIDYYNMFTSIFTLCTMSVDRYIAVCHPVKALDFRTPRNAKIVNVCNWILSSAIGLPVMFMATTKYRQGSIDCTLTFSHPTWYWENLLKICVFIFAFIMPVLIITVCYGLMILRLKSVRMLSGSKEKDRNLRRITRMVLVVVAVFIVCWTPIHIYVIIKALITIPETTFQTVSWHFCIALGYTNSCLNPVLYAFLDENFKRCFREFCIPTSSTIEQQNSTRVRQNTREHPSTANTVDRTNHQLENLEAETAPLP
Sequence of Sodium-dependent noradrenaline transporter (P23975 whole entry): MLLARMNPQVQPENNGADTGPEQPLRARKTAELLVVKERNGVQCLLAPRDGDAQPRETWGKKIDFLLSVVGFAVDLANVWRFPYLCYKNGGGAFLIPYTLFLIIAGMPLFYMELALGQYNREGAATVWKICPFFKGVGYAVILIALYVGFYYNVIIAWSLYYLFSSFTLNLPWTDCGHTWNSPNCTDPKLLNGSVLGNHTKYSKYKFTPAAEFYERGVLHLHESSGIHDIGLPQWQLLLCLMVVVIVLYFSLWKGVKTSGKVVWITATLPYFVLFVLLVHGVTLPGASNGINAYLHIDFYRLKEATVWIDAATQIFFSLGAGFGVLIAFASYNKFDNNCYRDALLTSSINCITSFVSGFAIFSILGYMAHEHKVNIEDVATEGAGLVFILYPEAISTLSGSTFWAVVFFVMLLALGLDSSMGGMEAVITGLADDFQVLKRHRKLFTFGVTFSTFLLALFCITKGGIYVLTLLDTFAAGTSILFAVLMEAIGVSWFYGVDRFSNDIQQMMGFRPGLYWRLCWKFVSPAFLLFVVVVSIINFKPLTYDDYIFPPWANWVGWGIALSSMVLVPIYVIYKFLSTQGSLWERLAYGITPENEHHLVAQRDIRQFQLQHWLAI
Sequence of Histamine H1 receptor (P35367 whole entry): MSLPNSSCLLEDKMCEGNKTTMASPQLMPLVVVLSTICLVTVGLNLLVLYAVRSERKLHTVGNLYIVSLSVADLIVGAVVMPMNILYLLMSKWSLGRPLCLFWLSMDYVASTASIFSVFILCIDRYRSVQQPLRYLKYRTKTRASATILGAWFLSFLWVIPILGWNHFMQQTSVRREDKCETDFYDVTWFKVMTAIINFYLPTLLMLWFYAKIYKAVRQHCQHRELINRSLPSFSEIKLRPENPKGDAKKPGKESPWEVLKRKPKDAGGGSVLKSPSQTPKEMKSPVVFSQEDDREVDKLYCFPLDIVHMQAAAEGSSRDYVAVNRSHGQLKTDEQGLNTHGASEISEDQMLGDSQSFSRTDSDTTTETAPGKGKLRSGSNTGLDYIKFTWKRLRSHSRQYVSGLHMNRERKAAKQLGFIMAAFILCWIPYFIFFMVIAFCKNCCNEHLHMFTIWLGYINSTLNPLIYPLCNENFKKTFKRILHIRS

A word on the Ki: it is a measure of affinity in units of concentration, obtained from inhibition or displacement. Lower therefore signals a stronger hold on the target. As for `CCOC(=O)C(CN1CC[C@@](C)(c2cccc(O)c2)[C@@H](C)C1)OC(=O)[C@H]1Cc2ccc(O)cc2CN1` (some centres not stated), the Ki on Mu-type opioid receptor [1] came to 26.5 nM; in data set [2], 1.72 nM; in data set [3], 1060 nM. Further, the Kb in [4] is 2.4 nM; at Mu-type opioid receptor [5], below 5010 nM.

As to `O=C1N[C@@H](Cc2ccccc2)C(=O)N2CCC[C@H]2C(=O)N[C@@H](Cc2ccccc2)C(=O)N[C@H]1Cc1c[nH]c2ccccc12` (cyclo(FPFW)), the Kb in data set [6] came to 65.2 nM; on Mu-type opioid receptor [7] it was 10.2 nM. Moreover, the Time in the data set listed under Mus musculus was above 24 h.

For `CC(C)[C@@H](CN1CC[C@@](C)(c2cccc(O)c2)[C@@H](C)C1)NC(=O)[C@H](N)Cc1ccc(O)cc1`, the Ke in data set [8] came to 12 nM; in data set [9], 44.6 nM; in the data set listed under Cavia porcellus, 334 nM.

Take `CC[C@H](C)[C@@H]1NC(=O)[C@H](CCCNC(=N)N)NC(=O)[C@@H](NC(=O)[C@H](Cc2ccccc2)NC(=O)CNC(=O)CNC(=O)[C@H](Cc2ccc(O)cc2)NCc2ccccc2)CC(=O)NC[C@@H](C(=O)N[C@@H](CCCNC(=N)N)C(=O)N2CCC[C@H]2C(=O)N[C@@H](CCCCN)C(N)=O)NC1=O`: the Ratio Ki with CHO [10] is above 330; in the data set on CHO [11] it was 194.

The term IC50 denotes the concentration at which inhibition is half-maximal. Lower therefore signals greater potency. Take `COc1ccc(N2CCN(CCCNC(=O)Cn3c(=O)c4cccn4c4c(C)ccnc43)CC2)cc1`: the Ki (in data set [12]; at Histamine H1 receptor; on D(3) dopamine receptor) was below 1000 nM throughout. Also, the IC50 (in data set [13]; against Mu-type opioid receptor [14]) was above 32000 nM in each case. The remaining at 1 h in data set [15] was found to be 7.34%.

As to `CC(C)[C@@H](CN1CC[C@@](C)(c2cccc(O)c2)[C@@H](C)C1)NC(=O)[C@H]1Cc2ccc(O)cc2CN1C`, the Ke in the data set listed under Cavia porcellus is above 300 nM.

Consider `CC(C)CNCc1ccc(-c2ccccc2S(=O)(=O)N2CCCC2)cc1` [PF-04455242], for which the ID50 came to 2 mg/kg in [16] and 8.6 mg/kg in data set [17]. For the same compound, the Activity in data set [18] was determined as 82%. The ED50 in the data set with Rattus norvegicus is 2.3 mg/kg.

For the compound `CCc1ccc(S(=O)(=O)NCc2ccc(C(=O)NCCN(Cc3ccccc3)C(C)C)cc2)cc1`, the concentration for half-maximal inhibition (IC50) was above 32000 nM in [13], above 32000 nM on Mu-type opioid receptor [14] and 1120 nM in data set [19].

In the case of `C[C@@H]1NC(=O)[C@H](Cc2c[nH]c3ccccc23)NC(=O)[C@H](Cc2ccccc2)NC(=O)[C@@H]2CCCN2C1=O` (cyclo(APFW)), the Kb in data set [6] is 2.6 nM. For the same compound, the Ke at Mu-type opioid receptor [7] is 7.3 nM. Moreover, in the data set filed under Mus musculus, the Time is below 18 h.

For the compound `CC(C)[C@@H](CN1CC[C@@](C)(c2cccc(O)c2)[C@@H](C)C1)NC(=O)CCc1ccc(O)cc1`, the Ke in the data set filed under Cavia porcellus is 450 nM.

For the compound `CC(=O)N1Cc2cc(O)ccc2C[C@@H]1C(=O)N[C@H](CN1CC[C@@](C)(c2cccc(O)c2)[C@@H](C)C1)C(C)C`, in the data set filed under Cavia porcellus, the Ke was above 300 nM.

With `C[C@@H]1NC(=O)[C@@H]2CCCN2C(=O)[C@H](Cc2ccccc2)NC(=O)[C@H](Cc2c[nH]c3ccccc23)NC1=O` (cyclo(AWFP)), the Time in the data set filed under Mus musculus is below 18 h.

Take `CC(C)[C@@H](CN1CC[C@@](C)(c2cccc(O)c2)[C@@H](C)C1)NC(=O)[C@@H]1Cc2ccc(O)cc2CN1`: the Ke in the data set listed under Cavia porcellus came to 327 nM.

As usually defined, the EC50 is the concentration at which the effect is half-maximal. `CO[C@H]1Cc2ccc(O)cc2C(C)(C)[C@@H]1N`: at Mu-type opioid receptor [20], the Activity came out at 31.6% and the EC50 is 234 nM.

Consider `COc1ccc(N2CCN(CCCNC(=O)Cn3c(=O)c4cccn4c4cc(Br)cnc43)CC2)cc1`, for which the IC50 in [13] is above 32000 nM.
